For series [1] the following is noted: for O—H BDE, absolute measured value (±2 SD): EPR equilibration; for O—H BDE, absolute measured value (±2 SD) / Experimental substituent effect on O—H BDE, 5-pyrimidinols (vi): solution phase; for O—H BDE: O—H bond dissociation enthalpy: Table A; for Experimental substituent effect on O—H BDE, 5-pyrimidinols (vi): 298 K, relative to unsubstituted (vi).
The conditions of series [2]: for k/alkyl: second order rate constant for reaction with alkyl radicals: Table A.
Series [3] is described as follows: Reaction with peroxyl radicals, oxygen consumption in inhibited autoxidation of styrene. It counts as physicochemical. The conditions noted are these: for Rate constants with peroxyl radicals, pyrimidinol versus phenolic counterpart: (vi)/(iv) pair; for k/peroxyl: second order rate constant for reaction with peroxyl radicals: Table A; for Rate constant for reaction with peroxyl radicals: benzene, 323 K.

The conditions of series [4]: open atmosphere.
The conditions of series [5]: Burton et al. 1985; cited from earlier work.
The conditions of series [6]: solution phase, 298 K, from ref 2C, cited from earlier work; for Experimental substituent effect on O—H BDE, phenols (iv): relative to unsubstituted (iv).
The conditions of series [7]: benzene, 298 K, reported in ref 12, cited from earlier work.
On the set-up of series [8]: key: Not an air-stable compound. Particulars: Table 2, column (iv); cited from earlier work.

Where two headings read alike, the source gives them in different places. Marks after values point to notes of the source that are not given here.

The values below come from patent US7547709B2, “Chain-breaking antioxidants” (Vanderbilt University, priority 2004, dated 2009).

As to `Oc1cncnc1` [Example 1, 5-Pyrimidinol], the “O—H BDE: O—H bond dissociation enthalpy (estimate)” value in series [1] (Estimate based upon other results to date for other 5-pyrimidinols) was 91.3^a. The “k/alkyl: second order rate constant for reaction with alkyl radicals” value (from here on “k/alkyl: second order rate constant”) in series [2] was 3.6 × 10^6.
In the case of `Cc1nc(C)c(O)c(C)n1` [Example 2, 2,4,6-Trimethyl-5-pyrimidinol], in series [1], the “O—H BDE, absolute measured value (±2 SD)” value was determined as 85.2 ± 0.5 kcal/mol; the “O—H BDE: O—H bond dissociation enthalpy” value is reported as 85.2; the “Experimental substituent effect on O—H BDE, 5-pyrimidinols (vi)” value (“Experimental substituent effect … (vi)” below) is -5.9 kcal/mol. Further, in series [3], the “Rate constants with peroxyl radicals, pyrimidinol versus phenolic counterpart” value is listed as at most 3; the “k/peroxyl: second order rate constant for reaction with peroxyl radicals” value (“k/peroxyl: second order rate constant” below) is 3.3 ± 0.4 × 10^4; the “Rate constant for reaction with peroxyl radicals” value is on record as 3.3 ± 0.4 × 10^4 M^−1 s^−1. For the same compound, the “k/alkyl: second order rate constant” value in series [2] is reported as 4.6 × 10^5. Also, the “Rate constant for reaction with alkyl radicals (estimate)” value in series [2] (benzene, 298 K, neophyl clock (N), estimate from correlations of k and β for CH3CN, EtOAc, t-BuOH) is 4.6 × 10^5 (N)^c,d M^−1 s^−1. Besides, the “Deuterium kinetic isotope effect (kH/kD), alkyl radicals” value in series [2] (dry solvents containing D2O) was 3.1.
Turning to `Cc1nc(C(C)(C)C)c(O)c(C(C)(C)C)n1` [Example 3, 2-Methyl-4,6-di-tert-butyl-5-pyrimidinol], in series [1], the “O—H BDE, absolute measured value (±2 SD)” value came out at 84.10 ± 0.25 kcal/mol; the “O—H BDE: O—H bond dissociation enthalpy” value was 84.1; the “Experimental substituent effect … (vi)” value is -7.0 kcal/mol. Moreover, in series [3], the “Rate constants with peroxyl radicals, pyrimidinol versus phenolic counterpart” value is given as “roughly the same”; the “k/peroxyl: second order rate constant” value was 2.2 ± 0.3 × 10^4; the “Rate constant for reaction with peroxyl radicals” value was 2.2 ± 0.3 × 10^4 M^−1 s^−1. Moreover, the “k/alkyl: second order rate constant” value in series [2] is recorded as 3.2 ± 0.5 × 10^4. Also, the “Rate constant for reaction with alkyl radicals” value in series [2] (benzene, 298 K, neophyl radical clock (N)) is 3.2 ± 0.5 × 10^4 (N) M^−1 s^−1.
Consider `COc1nc(C)c(O)c(C)n1` [Example 4, 2-Methoxy-4,6-dimethyl-5-pyrimidinol], for which, in series [1], the “O—H BDE: O—H bond dissociation enthalpy” value was 82.5.
Take `Cc1nc(N(C)C)nc(C)c1O` [Example 5, 2-N,N-Dimethylamino-4,6-dimethyl-5-pyrimidinol]: in series [1], the “O—H BDE, absolute measured value (±2 SD)” value was found to be 78.16 ± 0.25 kcal/mol; the “O—H BDE: O—H bond dissociation enthalpy” value is on record as 78.2; the “Experimental substituent effect … (vi)” value is -12.9 kcal/mol. For the same compound, the “O—H BDE difference versus a-TOH, experiment” value in series [1] (relative to a-TOH) was -0.1 kcal/mol. Also, in series [4], the “Stability to air oxidation, in words” value is “without degradation by air oxidation”. Moreover, in series [3], the “k/peroxyl: second order rate constant” value was 8.6 ± 0.5 × 10^6 and the “Rate constant for reaction with peroxyl radicals” value is 8.6 ± 0.5 × 10^6f M^−1 s^−1. Further, the “Deuterium kinetic isotope effect (kH/kD), peroxyl radicals” value in series [3] (dry solvents containing D2O) is on record as 3.1. The “k/alkyl: second order rate constant” value in series [2] was 2.9 ± 1.1 × 10^6. Also, the “Rate constant for reaction with alkyl radicals” value in series [2] (benzene, 298 K, 5-hexenyl radical clock (H)) is given as 2.9 ± 1.1 × 10^6 (H) M^−1 s^−1. Moreover, the “Rate of reaction with alkyl radicals relative to α-TOH” value in series [2] (versus α-TOH) is given as 5 times.
As for `CCN1CCCc2c(C)c(O)c(C)c(C)c21` [Formula 3b], in series [5], the “Reactivity with peroxyl radicals compared to tocopherol, in words” value is “react slowly with peroxyl radicals”.
With `Oc1ccccc1` [iv, phenol], the “O—H BDE of unsubstituted phenol, absolute value” in series [6] is on record as “(88.3) kcal/mol”.
As for `Cc1cc(C)c(O)c(C)c1` [iv-b], in series [7] (neophyl clock (N)), the “Rate constant for reaction with alkyl radicals” value was 8.5 ± 0.2 × 10^4 (N)^e M^−1 s^−1. Also, the “Experimental substituent effect on O—H BDE, phenols (iv)” value (shortened to “Experimental substituent effect … (iv)”) in series [6] was -5.6 kcal/mol. In addition, the “Rate constant for reaction with peroxyl radicals” value in series [3] is on record as 1.1 ± 0.1 × 10^5 M^−1 s^−1.
`Cc1cc(C(C)(C)C)c(O)c(C(C)(C)C)c1` [iv-c]: in series [7] (neophyl clock (N)), the “Rate constant for reaction with alkyl radicals” value is reported as 4.8 ± 1.5 × 10^3 (N)^e M^−1 s^−1. Besides, the “Experimental substituent effect … (iv)” value in series [6] was -7.3 kcal/mol. Besides, the “Rate constant for reaction with peroxyl radicals” value in series [3] is given as 1.8 ± 0.3 × 10^4 M^−1 s^−1.
In the case of `Cc1cc(N(C)C)cc(C)c1O` [iv-d], the “Air stability, footnote letter in place of O—H BDE” value in series [8] was “d”.
Consider α-tocopherol [a-TOH (1)], for which the “Rate constant for reaction with alkyl radicals” value in series [7] (5-hexenyl clock (H)) is 6.0 ± 1.5 × 10^5 (H)^e M^−1 s^−1. Moreover, the “Experimental substituent effect … (iv)” value in series [6] was −10.0^c kcal/mol. Besides, in series [3], the “Rate constant for reaction with peroxyl radicals” value is recorded as 4.1 ± 0.4 × 10^6 M^−1 s^−1.
